{"source": "patent US20090281054A1", "about": "“COMPOSITIONS AND METHODS COMPRISING CAPURAMYCIN ANALOGUES” (priority 2008, published 2009)", "key": {"[1]": {"tested_on": "intracellular MTB (MTBp-SMT1) in J774A.1 macrophages", "assay": "Intracellular activity of SQ641-TPGS micelles", "format": "cell-based, Mycobacterium tuberculosis"}, "M. smegmatis": {"tested_on": "M. smegmatis", "assay": "Synergy by checkerboard titration (microdilution)", "format": "cell-based"}, "M. abscessus": {"tested_on": "M. abscessus", "assay": "Synergy by checkerboard titration (microdilution)", "format": "cell-based"}, "MTB [2]": {"tested_on": "MTB", "assay": "Activity in acidic pH (microdilution in 7H9 broth)", "format": "cell-based, Mycobacterium tuberculosis", "conditions": "pH 7.0 to 5.0", "excerpt": "Activity in acidic pH. The pH in macrophage phagolysomes is ˜5.5. To be effective against intracellular organisms, anti-TB drugs should concentrate inside macrophages and be active in an acidic environment. The activity of SQ641 against MTB was investigated by microdilution method in 7H9 broth at different hydrogen ion concentrations."}, "translocase I": {"target": "translocase I (Escherichia coli, UniProt P0A6W3)", "sequence (P0A6W3 whole entry)": "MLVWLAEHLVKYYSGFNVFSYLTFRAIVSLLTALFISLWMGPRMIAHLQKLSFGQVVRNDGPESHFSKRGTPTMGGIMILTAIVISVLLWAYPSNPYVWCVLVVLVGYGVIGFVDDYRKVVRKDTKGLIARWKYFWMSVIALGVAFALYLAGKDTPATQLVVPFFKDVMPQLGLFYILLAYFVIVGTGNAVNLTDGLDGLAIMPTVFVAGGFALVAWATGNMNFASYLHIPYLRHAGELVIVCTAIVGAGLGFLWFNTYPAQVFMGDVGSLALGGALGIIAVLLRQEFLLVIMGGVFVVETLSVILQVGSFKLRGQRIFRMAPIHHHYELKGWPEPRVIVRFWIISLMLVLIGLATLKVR", "assay": "IC50 against translocase I", "format": "biochemical"}, "[3]": {"tested_on": "Mycobacterium tuberculosis (MTB)", "assay": "MIC by BACTEC radiometric method", "format": "cell-based", "description": "Determination of MIC. MIC of drugs for laboratory and clinical strains of Mycobacterium tuberculosis (MTB) was determined by BACTEC radiometric method as described by Heifets (1991), “Antituberculosis Drugs: Antimicrobial Activity in vitro, Drug Susceptibility in the Chemotherapy of Microbacterial Infections, Boca Raton, Fla., CRC Press and Luna-Herrera et al., Antimicrob. Agents and Chemother. 1995, 39(2), 440-444. […] The minimal inhibitory concentration (MIC) was defined as the lowest concentrations of drug that caused GI equal to or less than that of the 1/100 dilution growth control. Capuramycin analogues SQ641, SQ922 and SQ997 were tested at concentrations ranging from […]."}, "[4]": {"tested_on": "M. smegmatis (MSMG; MC2155)", "assay": "MIC by microdilution method in 7H9 broth", "format": "cell-based", "conditions": "MSMG MC^2155, 72 hr"}, "MSMG and MTB (H37Rv)": {"tested_on": "MSMG and MTB (H37Rv)", "assay": "Minimum bactericidal concentration (MBC), MBC/MIC ratio", "format": "cell-based, Mycobacterium tuberculosis; M. smegmatis"}, "M. avium complex (MAC)": {"tested_on": "M. avium complex (MAC)", "assay": "MIC by microdilution method in 7H9 broth", "format": "cell-based"}, "[5]": {"tested_on": "M. abscessus (MAB; ATCC 700869)", "assay": "MIC by microdilution method in 7H9 broth", "format": "cell-based", "conditions": "Mycobacteroides abscessus, ATCC700869; MAB 700869; read-out: MIC"}, "MTB [6]": {"tested_on": "MTB", "assay": "Synergy by checkerboard titration (microdilution)", "format": "cell-based, Mycobacterium tuberculosis", "description": "Synergistic activity with other anti-TB drugs against MSMG, MTB, MAB, and MAC. Synergy with other anti-mycobacterial drugs was determined in two drug combinations by checkerboard titration using a microdilution method. Fractional inhibitory concentration (FIC) is the MIC in combination divided by the MIC of individual drug. An FIC index (ΣFIC) of ≦0.5 indicates synergistic activity, ≧4.0 antagonistic activity and in between, additive effect. Synergistic activity was determined against MSMG, MTB, MAB and MAC. All the three CM analogues were tested in combination with INH, RIF, EMB and SM against MSMG. Similarly, all the three CM analogues were tested in combination with INH, EMB, SM and SQ109 against MTB. Only SQ641 was tested in combination with EMB, clarithromycin (CLA) and amikacin (AMK) against MAC."}, "[7]": {"tested_on": "M. kansaii (MKN; ATCC12478 & 35775)", "assay": "MIC by microdilution method in 7H9 broth", "format": "cell-based, M. kansasii", "conditions": "Mycobacterium kansasii, read-out: MIC"}}, "note": "Where two headings read alike, the source gives them in different places."}
{"smiles": "CCCCCCCCCC(=O)O[C@@H]1[C@H](OC)[C@@H]([C@@H](O[C@H]2OC(C(=O)N[C@H]3CCC[C@@H](C)NC3=O)=C[C@H](O)[C@@H]2O)C(N)=O)O[C@H]1n1ccc(=O)[nH]c1=O", "note": "[SQ641]", "values": [{"measurement": "Mean RLU at Day 7", "setting": "[1]; Expt 1, one day drug exposure, 5 μg/ml, Day 0 RLU 104, CONTROL Day 7 906", "result": 95, "unit": "RLU"}, {"measurement": "Mean RLU at Day 7", "setting": "[1]; Expt 1, one day drug exposure, 10 μg/ml, Day 0 RLU 104, CONTROL Day 7 906", "result": 64, "unit": "RLU"}, {"measurement": "Mean RLU at Day 7", "setting": "[1]; Expt 1, one day drug exposure, 20 μg/ml, Day 0 RLU 104, CONTROL Day 7 906", "result": 47, "unit": "RLU"}, {"measurement": "Mean RLU at Day 7", "setting": "[1]; Expt 2, four days drug exposure, 4 μg/ml, Day 0 RLU 205, CONTROL Day 7 491", "result": 62, "unit": "RLU"}, {"measurement": "Mean RLU at Day 7", "setting": "[1]; Expt 2, four days drug exposure, 8 μg/ml, Day 0 RLU 205, CONTROL Day 7 491", "result": 32, "unit": "RLU"}, {"measurement": "Mean RLU at Day 7", "setting": "[1]; Expt 2, four days drug exposure, 16 μg/ml, Day 0 RLU 205, CONTROL Day 7 491", "result": 17, "unit": "RLU"}, {"measurement": "Mean RLU at Day 7", "setting": "[1]; Expt 2, four days drug exposure, 32 μg/ml, Day 0 RLU 205, CONTROL Day 7 491", "result": 8, "unit": "RLU"}, {"measurement": "ΣFIC", "setting": "M. smegmatis; M. smegmatis, SQ641 + EMB", "result": 0.375}, {"measurement": "ΣFIC", "setting": "M. smegmatis; M. smegmatis, SQ641 + INH", "result": 0.25}, {"measurement": "ΣFIC", "setting": "M. smegmatis; M. smegmatis, SQ641 + RIF", "result": 0.75}, {"measurement": "ΣFIC", "setting": "M. smegmatis; M. smegmatis, SQ641 + SM", "result": 1.0}, {"measurement": "MIC Combination", "setting": "M. smegmatis; M. smegmatis, combination SQ641 + EMB", "result": 0.25, "unit": "µg/mL"}, {"measurement": "MIC Combination", "setting": "M. smegmatis; M. smegmatis, combination SQ641 + INH", "result": 0.25, "unit": "µg/mL"}, {"measurement": "MIC Combination", "setting": "M. smegmatis; M. smegmatis, combination SQ641 + RIF", "result": 1.0, "unit": "µg/mL"}, {"measurement": "MIC Combination", "setting": "M. smegmatis; M. smegmatis, combination SQ641 + SM", "result": 1.0, "unit": "µg/mL"}, {"measurement": "Synergy with other anti-mycobacterial drugs", "setting": "M. smegmatis; MSMG", "result": "synergy in combination with INH and EMB in MSMG"}, {"measurement": "MIC", "setting": "M. smegmatis; Mycolicibacterium smegmatis, M. smegmatis, drug alone", "result": 2, "unit": "µg/mL"}, {"measurement": "MIC", "setting": "M. abscessus; Mycobacteroides abscessus, drug alone", "result": 0.5, "unit": "µg/mL"}, {"measurement": "ΣFIC", "setting": "M. abscessus; SQ641 + RFB", "result": 0.25}, {"measurement": "ΣFIC", "setting": "M. abscessus; SQ641 + SM", "result": 0.375}, {"measurement": "MIC Combination", "setting": "M. abscessus; combination SQ641 + RFB", "result": 0.062, "unit": "µg/mL"}, {"measurement": "MIC Combination", "setting": "M. abscessus; combination SQ641 + SM", "result": 0.062, "unit": "µg/mL"}, {"measurement": "Activity at different hydrogen ion concentrations", "setting": "MTB [2]", "result": "no loss"}, {"measurement": "IC50 against translocase I", "setting": "translocase I", "result": 0.55, "unit": "µg/mL"}, {"measurement": "MIC", "setting": "[3]; H37RV, MTB strain H37Rv", "result": 1, "unit": "µg/mL"}, {"measurement": "MIC90", "setting": "[3]; MTB", "result": 4, "unit": "µg/mL"}, {"measurement": "MIC", "setting": "[3]; MTB strain 16", "result": 4, "unit": "µg/mL"}, {"measurement": "MIC", "setting": "[3]; MTB strain 113", "result": 1, "unit": "µg/mL"}, {"measurement": "MIC", "setting": "[3]; MTB strain 158", "result": 4, "unit": "µg/mL"}, {"measurement": "MIC", "setting": "[3]; MTB strain 606", "result": 4, "unit": "µg/mL"}, {"measurement": "MIC", "setting": "[3]; MTB strain 847", "result": 4, "unit": "µg/mL"}, {"measurement": "MIC", "setting": "[3]; MTB strain 1351", "result": 1, "unit": "µg/mL"}, {"measurement": "MIC", "setting": "[3]; MTB strain 1407", "result": 2, "unit": "µg/mL"}, {"measurement": "MIC", "setting": "[3]; MTB strain 1498", "result": 4, "unit": "µg/mL"}, {"measurement": "MIC", "setting": "[3]; MTB strain 1665", "result": 2, "unit": "µg/mL"}, {"measurement": "MIC", "setting": "[3]; MTB strain 1703", "result": 4, "unit": "µg/mL"}, {"measurement": "MIC", "setting": "[3]; MTB strain 1760", "result": 8, "unit": "µg/mL"}, {"measurement": "MIC", "setting": "[3]; MTB strain 1782", "result": 2, "unit": "µg/mL"}, {"measurement": "MIC", "setting": "[3]; MTB strain 1901", "result": 4, "unit": "µg/mL"}, {"measurement": "MIC", "setting": "[3]; MTB strain 1921", "result": 4, "unit": "µg/mL"}, {"measurement": "MIC", "setting": "[3]; MTB strain 2224", "result": 4, "unit": "µg/mL"}, {"measurement": "MIC", "setting": "[3]; MTB strain 2554", "result": 4, "unit": "µg/mL"}, {"measurement": "MIC", "setting": "[3]; MTB strain 2693", "result": 8, "unit": "µg/mL"}, {"measurement": "MIC", "setting": "[3]; MTB strain 8266", "result": 2, "unit": "µg/mL"}, {"measurement": "MIC", "setting": "[3]; MTB strain 8642", "result": 4, "unit": "µg/mL"}, {"measurement": "MIC", "setting": "[4]", "result": 2, "unit": "µg/mL"}, {"measurement": "MIC", "setting": "[4]; Mycolicibacterium smegmatis, MC2155|MC^2155, read-out: MIC", "result": 2, "unit": "µg/mL"}, {"measurement": "MBC/MIC ratio", "setting": "MSMG and MTB (H37Rv)", "result": 1}, {"measurement": "MIC", "setting": "M. avium complex (MAC); Mycobacterium avium, 336 h, MAC isolates, 2 wk, read-out: MIC (range)", "result": "0.125 to 2", "unit": "µg/mL"}, {"measurement": "MIC", "setting": "M. avium complex (MAC); Mycobacterium avium, MAC strain 100, read-out: MIC", "result": 2, "unit": "µg/mL"}, {"measurement": "MIC", "setting": "M. avium complex (MAC); Mycobacterium avium, MAC strain 101, read-out: MIC", "result": 0.12, "unit": "µg/mL"}, {"measurement": "MIC", "setting": "M. avium complex (MAC); Mycobacterium avium, MAC strain 104, read-out: MIC", "result": 2, "unit": "µg/mL"}, {"measurement": "MIC", "setting": "M. avium complex (MAC); Mycobacterium avium, MAC strain 109, read-out: MIC", "result": 0.12, "unit": "µg/mL"}, {"measurement": "MIC", "setting": "M. avium complex (MAC); Mycobacterium avium, MAC strain A5, read-out: MIC", "result": 0.5, "unit": "µg/mL"}, {"measurement": "MIC", "setting": "M. avium complex (MAC); Mycobacterium avium, MAC strain JSH1, read-out: MIC", "result": 2, "unit": "µg/mL"}, {"measurement": "MIC", "setting": "M. avium complex (MAC); Mycobacterium avium, MAC strain NIH C1-1, read-out: MIC", "result": 0.5, "unit": "µg/mL"}, {"measurement": "MIC", "setting": "M. avium complex (MAC); Mycobacterium avium, MAC strain NIH C1-2, read-out: MIC", "result": 0.25, "unit": "µg/mL"}, {"measurement": "MIC", "setting": "M. avium complex (MAC); Mycobacterium avium, MAC strain NIH C1-3, read-out: MIC", "result": 2, "unit": "µg/mL"}, {"measurement": "MIC", "setting": "M. avium complex (MAC); Mycobacterium avium, MAC strain NIH C1-4, read-out: MIC", "result": 0.5, "unit": "µg/mL"}, {"measurement": "MIC90", "setting": "M. avium complex (MAC); Mycobacterium avium, MAC isolates, value in square brackets, read-out: MIC90", "result": 2, "unit": "µg/mL"}, {"measurement": "MIC range", "setting": "M. avium complex (MAC); ten MAC isolates (Table 6)", "result": "0.125 to 2", "unit": "µg/mL"}, {"measurement": "MIC", "setting": "[5]", "result": 0.5, "unit": "µg/mL"}, {"measurement": "Synergy with other anti-mycobacterial drugs", "setting": "MTB [6]", "result": "synergistic activity with EMB, the new diamine antitubercular SQ109, and streptomycin against MTB"}, {"measurement": "ΣFIC", "setting": "MTB [6]; SQ641 + EMB", "result": 0.156}, {"measurement": "MIC", "setting": "[7]; ATCC 12478 / ATCC 35775, MKN ATCC35775", "result": 0.25, "unit": "µg/mL"}, {"measurement": "MIC", "setting": "[7]; MKN ATCC12478", "result": 1, "unit": "µg/mL"}]}
